# From patent publication US12029682B2, “Spray ejector mechanisms and devices providing charge isolation and controllable droplet charge, and low dosage volume ophthalmic administration” (EYENOVIA, INC., priority 2012, dated 2024)
# “Also recorded” adds a separate entry of the source.
# Key:
# glaucomatous beagles [1] = test: Intraocular pressure (IOP), TonoVet, in glaucomatous beagles; format: in vivo, beagle dog
# glaucomatous beagles [2] = test: Ocular irritation observations in glaucomatous beagles; format: in vivo, beagle dog; conditions: 6 μl of 0.03% via spray ejector device, compared to traditional eye drop treatment
# Procedure: Active drug delivery begins on study day eight. For five days, IOP and PD measurements are taken at 0900. Immediately after 0900 measurements (time 0), each animal receives 6 μl of generic latanoprost in its assigned eye with the ejector device, followed by a second dosing 3 minutes later of an additional 6 μl (to avoid overloading the conjunctival sac). The contralateral eye receives a clinical dose (one drop) of the same commercially-available topical drug from FDA approved container (positive control). The ejector device is checked for accuracy before and after every use (Table 1). Standard measurements continue throughout each day (at 0:30, 0:45, 1, 2, 7 hrs). Possible endpoints include, but are not limited to, excessive ocular irritation, ocular damage, or other illness and injury. […]
# On study days 5-9, IOP and PD measurements were taken at approximately 0900 h (time 0). Immediately after these measurements, each animal received 6 μl of 0.03% bimatoprost in its assigned eye via the spray ejector device. The contralateral eye received a clinical dose (one drop) of the same commercially available topical drug from a traditional eyedropper (positive control). The spray ejector device was checked for accuracy before and after every use and required a 10% delivered dose accuracy in pretreatment. Standard measurements continued throughout each day at 0, 1, 2, 4, and 7 hours. Possible endpoints included, but were not limited to, excessive ocular irritation, ocular damage, and other illness or injury. No statistical crossover was utilized for this study.
# Ophthalmic examinations (slit lamp with fluorescein and indirect ophthalmoscopy) were performed on the eyes of each animal prior to Study Day 1. Ocular findings were scored according to the McDonald-Shadduck Score System. Ocular findings were recorded using a standardized data collection sheet. Macroscopic observations were recorded in accordance with the Draize Scale for Scoring Ocular Lesions. Animals were assigned treatments based on basic randomization prior to study day one.
# Following a 7 day rest period, the eye choice was reversed. Measurements of IOP, heart rate and pupil diameter (PD) were made at 0:15, 0:30, 0:45, 1, 2, 4, 7, and 18 hours in the primary and crossover study. A veterinary ophthalmologist evaluated each test subject before and after the study for evidence of ocular side effects.
# Ophthalmic examinations (slit lamp with fluorescein and indirect ophthalmoscopy) were performed on the eyes of each animal prior to study day 1. Ocular findings were scored according to the McDonald-Shadduck score system and macroscopic observations were recorded in accordance with the Draize scale for scoring ocular lesions. Ocular findings were recorded using a standardized data collection sheet.
compound,measurement,setting,value
CCNC(=O)CCC/C=C\C[C@@H]1[C@@H](/C=C/[C@@H](O)CCc2ccccc2)[C@H](O)C[C@@H]1O [bimatoprost],duration of the dose vs spray ejector device,"glaucomatous beagles [1]; 0.03%, one drop by eyedropper",greater
same,effectiveness at lowering/controlling IOP vs traditional therapy,glaucomatous beagles [1]; 6 μl of 0.03% once daily morning via spray ejector device vs one drop (26-30 μl),as effective at lowering IOP and constricting the pupil as traditional therapy; also recorded: as effective at controlling IOP as is the traditional therapy
same,IOP values vs baseline,glaucomatous beagles [1]; 6 μl of 0.03% via spray ejector device,lower than baseline
same,irritation,glaucomatous beagles [2],Markedly less irritation; also recorded: Lack of ocular irritation
